Measurements from US12120996B2, “Induction method for improving yield and fertility of 2n pollen in Camellia oleifera” (Central South University of Forestry and Technology, priority 2024, dated 2024).

What was measured:
[1] = test system: Camellia oleifera 'Huaxin' 2n pollen; assay: 2n pollen yield (occurrence frequency) after precursor application and 45° C. high-temperature treatment of flower branches; assay type: in vivo
Method: (§1) After the high-temperature treatment was released, Camellia oleifera grew naturally until anthers were pollinated. Pollen of each treatment was collected, and a temporary smear of the pollen was made by an aceto-carmine staining method and then photographed by an OlympusDP70 optical microscope; and a diameter of pollen in a temporary smear of each treatment was measured by Image J software, and a yield and a fertility rate of 2n pollen were counted.
(§2) Pollen stained red by aceto-carmine was counted as fertile pollen, and pollen not stained red by aceto-carmine was counted as infertile pollen (as shown in FIG. 3).
(§3) An occurrence frequency of 2n pollen was a ratio of an amount of 2n pollen to a total amount of pollen observed, and a fertility rate of 2n pollen was a ratio of an amount of fertile 2n pollen to a total amount of 2n pollen observed. […] When no high-temperature treatment is applied, an occurrence frequency of 2n pollen is 0.9%, and a fertility rate is 100%. • 2. […] Treatment conditions for 2n pollen in Camellia oleifera in the present disclosure: a leptotene stage to a pachytene stage of pollen mother cells, a style length: less than 2.57 mm, an induction temperature: 43° C. to 49° C., and an induction time: 3 h to 6 h.
(§4) Flower branches with a style length developing to 1.97 mm<L≤2.27 mm and pollen mother cells at a leptotene stage to a pachytene stage were selected as target flower branches, and DMTU solutions with different concentrations were applied to the target flower branches, respectively; and a flower branch not treated with a DMTU solution was adopted as a control.
(§5) The concentrations of the DMTU solutions were 1 mg/L, 5 mg/L, 10 mg/L, 15 mg/L, 20 mg/L, and 25 mg/L, respectively. Preparation method of a DMTU solution: DMTU was first dissolved with an appropriate amount of alcohol, and then water was added to a required concentration.
(§6) The above DMTU solutions with different concentrations each were sprayed on a flower branch, where a DMTU solution was evenly sprayed on a flower branch by a sprayer until there were condensed water droplets flowing down from leaves or flower buds; and each treatment was numbered and recorded (as shown in Table 3).
(§7) After each DMTU solution was applied, in order to avoid rapid evaporation of a solution on a leaf surface due to a high-temperature treatment, the whole flower branch was wrapped with a plastic film, and then the non-ex vivo tree branch bud heating device in the authorized patent (patent ZL200610113448.X) was immediately used to apply a 45° C. high-temperature treatment to each target flower branch for 4 h, namely, a high-temperature doubling treatment. A doubling treatment method was the same as the doubling treatment method in step 1.2 of Example 1.
(§8) After a high-temperature treatment was conducted for 4 h, a heating bag and a plastic film were removed to release the high-temperature treatment, and Camellia oleifera was allowed to grow naturally until anthers were pollinated. Pollen of each treatment was collected, and a temporary smear of the pollen was made by an aceto-carmine staining method and then photographed by an Olympus DP70 optical microscope; and a diameter of pollen was measured by Image J software, and an occurrence frequency and a fertility rate of 2n pollen were counted.
(§9) The above reagents were applied through spraying on a flower branch and injection into a flower bud. The spraying on a flower branch was as follows: a precursor solution was evenly sprayed on the flower branch by a sprayer until there were condensed water droplets flowing down from leaves or flower buds. The injection into a flower bud was as follows: a precursor solution was injected into the flower bud by a 5 mL syringe (0.5×20 mm injection needle) through a scale gap at a top of the flower bud until there were water droplets overflowing a surface of the flower bud. […]

[2] = test system: Camellia oleifera 'Huaxin' 2n pollen; assay: 2n pollen fertility rate (aceto-carmine staining) after precursor application and 45° C. high-temperature treatment of flower branches; assay type: in vivo; details: for 2n pollen fertility rate (%): 45° C.; for k1 (K1/4, mean 2n pollen fertility rate at level 1): level 1: DMTU 5 mg/L, mannitol 0.1 g/L, ascorbic acid 0.5 mg/L, brassinolide 2.0 mg/L, sucrose 5 g/L; for k2 (K2/4, mean 2n pollen fertility rate at level 2): level 2: DMTU 10 mg/L, ascorbic acid 1.0 mg/L, sucrose 10 g/L; for k3 (K3/4, mean 2n pollen fertility rate at level 3): level 3: DMTU 15 mg/L, mannitol 1.0 g/L, brassinolide 6.0 mg/L, sucrose 15 g/L; for k4 (K4/4, mean 2n pollen fertility rate at level 4): level 4: DMTU 20 mg/L, mannitol 2.0 g/L, ascorbic acid 2.0 mg/L, brassinolide 8.0 mg/L, sucrose 30 g/L
Method: as §1, §2, §3, §4, §5, §6, §7, §8, §9

[3] = Injection into a flower bud, DMTU 10 mg/L, mannitol 0.5 g/L, ascorbic acid 1.5 mg/L, brassinolide 4.0 mg/L, 4 h (Example 2B)
[4] = Spraying on a flower branch, DMTU 10 mg/L, mannitol 0.5 g/L, ascorbic acid 1.5 mg/L, brassinolide 4.0 mg/L, 4 h (Example 2B)
[5] = mannitol 0.5 g/L, brassinolide 4.0 mg/L, in %
[6] = DMTU solution 1 mg/L sprayed on flower branch, 4 h
[7] = DMTU solution 5 mg/L sprayed on flower branch, 4 h
[8] = DMTU solution 10 mg/L sprayed on flower branch, 4 h (Example 2A)
[9] = DMTU solution 15 mg/L sprayed on flower branch, 4 h
[10] = DMTU solution 20 mg/L sprayed on flower branch, 4 h
[11] = DMTU solution 25 mg/L sprayed on flower branch, 4 h

| SMILES | 2n pollen yield (%) [1, 3] [%] | 2n pollen yield (%) [1, 4] [%] | 2n pollen fertility rate (%) [2, 3] [%] | 2n pollen fertility rate (%) [2, 4] [%] | k1 (K1/4, mean 2n pollen fertility rate at level 1) ([2]; in %) | k2 (K2/4, mean 2n pollen fertility rate at level 2) [2, 5] | k3 (K3/4, mean 2n pollen fertility rate at level 3) ([2]; ascorbic acid 1.5 mg/L, in %) | k4 (K4/4, mean 2n pollen fertility rate at level 4) ([2]; in %) | also measured |
| --- | --- | --- | --- | --- | --- | --- | --- | --- | --- |
| O=C1O[C@H]([C@@H](O)CO)C(O)=C1O [Ascorbic acid, ascorbic acid] | 10.05 | 9.76 | 81.26 | 79.58 | – | – | – | – | k1 (K1/4, mean 2n pollen fertility rate at level 1) [2]: 80.47; k2 (K2/4, mean 2n pollen fertility rate at level 2) ([2]; mannitol 0.5 g/L, brassinolide 4.0 mg/L): 83.42; k3 (K3/4, mean 2n pollen fertility rate at level 3) ([2]; ascorbic acid 1.5 mg/L): 81.04; k4 (K4/4, mean 2n pollen fertility rate at level 4) [2]: 80.24 |
| CC(C)[C@H](C)[C@@H](O)[C@H](O)[C@@H](C)[C@H]1CC[C@H]2[C@@H]3COC(=O)[C@H]4C[C@H](O)[C@H](O)C[C@]4(C)[C@H]3CC[C@]12C [Brassinolide, brassinolide] | 11.03 | 10.83 | 84.13 | 82.58 | 79.88 | 82.98 | 81.95 | 80.36 | – |
| CNC(=S)NC [DMTU, N,N′-Dimethylthiourea] | 12.17 | 11.52 | 90.14 | 86.97 | 78.23 | 87.54 | 81.12 | 78.28 | 2n pollen yield (%) [1, 6]: 9.17%; 2n pollen yield (%) [1, 7]: 9.81%; 2n pollen yield (%) [1, 8]: 11.52%; 2n pollen yield (%) [1, 9]: 10.83%; 2n pollen yield (%) [1, 10]: 10.15%; 2n pollen yield (%) [1, 11]: 9.05%; 2n pollen yields and fertility rates compared with the control ([2]; 5 mg/L, 10 mg/L, 15 mg/L and 20 mg/L DMTU solutions sprayed on flower branches): significantly improved; 2n pollen fertility rate (%) [2, 6]: 64.25%; 2n pollen fertility rate (%) [2, 7]: 75.94%; 2n pollen fertility rate (%) [2, 8]: 86.23%; 2n pollen fertility rate (%) [2, 9]: 82.46%; 2n pollen fertility rate (%) [2, 10]: 78.61%; 2n pollen fertility rate (%) [2, 11]: 64.43% |
| OC[C@@H](O)[C@@H](O)[C@H](O)[C@H](O)CO [Mannitol, mannitol] | 9.68 | 9.81 | 77.89 | 75.94 | 81.64 | 82.95 | 80.98 | 79.59 | – |
| OC[C@H]1O[C@@](CO)(O[C@H]2O[C@H](CO)[C@@H](O)[C@H](O)[C@H]2O)[C@@H](O)[C@@H]1O [Sucrose, sucrose] | – | – | – | – | 80.87 | 80.95 | 82.91 | 80.44 | – |
